Patent publication US12433875B2, “(R)-4-(1-(6-(4-(trifluoromethyl)benzyl)-6-azaspiro[2.5]octane-5-carboxamido)-cyclopropyl) benzoic acid or its salt also in polymorphic form a for use in the prevention of heterotopic ossification” (ROTTAPHARM BIOTECH S.R.L., priority 2019, dated 2025)

Columns and labels:
[1] = system: Male DBA/1 mice (CIA model); assay: CIA in mice, histology of heterotopic bone formation; assay type: in vivo; conditions: 30 mg/kg (lowest tested dose) once daily for 10 days, FIG. 9
Experimental: CIA in mice is another very popular translational model to mimic human arthritis. […] Male DBA/1 mice were immunized by intradermal injection at the base of the tail with an emulsion of 200 μg of bCII in CFA containing 3 mg/ml Mycobacterium tuberculosis. Non-immunized mice served as the negative control of disease. Animals were monitored by visual inspection for appearance of peripheral edema. […] Upon onset, animals were recruited and randomized. Recruitment was given a cut-off at day 40. Upon recruitment, arthritis clinical score was assigned, and edema was measured via caliper. Mice were randomized into the following groups: vehicle, 30 mg/kg the form A of the sodium salt of (R)-4-(1-(6-(4-(trifluoromethyl)benzyl)-6-azaspiro[2.5]octane-5-carboxamido)cyclopropyl)benzoic acid, 60 mg/kg the form A of the sodium salt of (R)-4-(1-(6-(4-(trifluoromethyl)benzyl)-6-azaspiro[2.5]octane-5-carboxamido)cyclopropyl)benzoic acid and 60 mg/kg naproxen. Animals received the test drugs once daily for 10 days. Histology was performed as described for rats.

[2] = system: human osteoblasts from patients with Osteoarthritis; assay: Pathological osteoblast proliferation induced by IL-1β, MTT assay; assay type: cell-based; conditions: IL-1β 2 ng/ml; time course 24 h, 6, 9 and 14 days; low concentrations; FIG. 11
Experimental: Human osteoblasts were purified from material obtained from patients undergoing knee replacement. Trabecular bone cells were isolated by spontaneous outgrowth culture methods. Purified osteoblasts were stimulated with IL-1β 2 ng/ml. Osteoblast proliferation was studied by MTT analysis in time course experiments (24 h, 6, 9, and 14 days). The form A of the sodium salt of (R)-4-(1-(6-(4-(trifluoromethyl)benzyl)-6-azaspiro[2.5]octane-5-carboxamido)cyclopropyl)benzoic acid resulted to be extremely effective in preventing in vitro osteoblast proliferation stimulated by IL1b.
This model has been performed to understand if the compound of the invention could correct the pathological hyperproliferation of osteoblasts taken from patients suffering from degenerative pathologies eventually resulting in a total joint replacement surgical procedure.
Trabecular bone of the tibial plateau was obtained from patients with Osteoarthritis (OA) undergoing joint replacement surgery. This material was purchased from Alphenyx (Marseille, France). […] The cell proliferation was analysed in a time course protocol by MTT assay. […] MTT was a tetrazolium salt especially useful to quantify living metabolically active cells. […] The plate was then read at λ=540 nm. […]

Question: For O=C([O-])c1ccc(C2(NC(=O)[C@H]3CC4(CCN3Cc3ccc(C(F)(F)F)cc3)CC4)CC2)cc1.[Na+] [Form A, sodium (R)-4-(1-(6-(4-(trifluoromethyl)benzyl)-6-azaspiro[2.5]octane-5-carboxamido)cyclopropyl)benzoate], which “pathological bone formation (histology)” value [1] is on record?
Answer: completely abrogated in almost all animals

Question: And the “osteoblast proliferation (MTT)” value [2]?
Answer: able to dose-dependently counteract osteoblast proliferation
